Test results: patent publication US12319655B2, “RAF kinase inhibitors and methods of use thereof” (Deciphera Pharmaceuticals, LLC, priority 2021, dated 2025)

Key:
[1] = biological target: A-Raf kinase (SEQ. ID No: 1) (Homo sapiens (Human), UniProt P10398, Y301D/Y302D); experiment: Biochemical Assay for A-Raf (1); conditions: Table J, assay version (1); read-out: ARAF (1) IC50
Outline: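 A-Raf Y301D/Y302D at 5.55 nM phosphorylates 30.1 nM MEK with 1 mM ATP in pH 7.5 Tris buffer, 1% DMSO. Activity was read continuously as NADH oxidation at 340 nm in a pyruvate kinase/lactate dehydrogenase coupled system for 6 h at 30 °C. Rates from 4–5 h were converted to percent inhibition, and IC50 came from a four-parameter fit.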

[2] = biological target: B-Raf kinase (SEQ. ID NO: 2) (Homo sapiens (Human), UniProt P15056); experiment: Biochemical Assay for B-Raf (1); conditions: Table J, assay version (1); read-out: BRAF (1) IC50
Chain of B-Raf kinase (SEQ. ID NO: 2) (P15056 416-766): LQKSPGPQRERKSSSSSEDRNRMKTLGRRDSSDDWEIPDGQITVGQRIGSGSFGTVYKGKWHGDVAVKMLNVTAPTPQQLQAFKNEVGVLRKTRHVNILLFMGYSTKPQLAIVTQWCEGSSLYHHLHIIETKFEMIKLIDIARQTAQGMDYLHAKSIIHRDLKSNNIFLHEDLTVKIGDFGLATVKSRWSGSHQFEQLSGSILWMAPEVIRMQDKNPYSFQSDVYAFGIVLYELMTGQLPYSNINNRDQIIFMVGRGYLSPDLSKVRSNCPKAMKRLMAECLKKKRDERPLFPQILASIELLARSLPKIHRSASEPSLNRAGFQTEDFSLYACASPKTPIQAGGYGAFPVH
Outline: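 Continuous PK/LDH-coupled NADH oxidation assay, A340 read for 6 h at 30° C., with 0.13 nM B-Raf, 30.1 nM MEK substrate and 1 mM ATP in Tris pH 7.5, MgCl2, DTT, detergents, 1% DMSO. Rate taken from 4–5 h window; percent inhibition vs no-compound and known-inhibitor controls; four-parameter fit gives IC50.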

[3] = biological target: C-Raf kinase (SEQ. ID NO: 3) (Homo sapiens (Human), UniProt P04049, Y340D/Y341D); experiment: Biochemical Assay for C-Raf (1); conditions: Table J, assay version (1); read-out: CRAF (1) IC50
Chain of C-Raf kinase (SEQ. ID NO: 3) (P04049 307-648 Y340D/Y341D): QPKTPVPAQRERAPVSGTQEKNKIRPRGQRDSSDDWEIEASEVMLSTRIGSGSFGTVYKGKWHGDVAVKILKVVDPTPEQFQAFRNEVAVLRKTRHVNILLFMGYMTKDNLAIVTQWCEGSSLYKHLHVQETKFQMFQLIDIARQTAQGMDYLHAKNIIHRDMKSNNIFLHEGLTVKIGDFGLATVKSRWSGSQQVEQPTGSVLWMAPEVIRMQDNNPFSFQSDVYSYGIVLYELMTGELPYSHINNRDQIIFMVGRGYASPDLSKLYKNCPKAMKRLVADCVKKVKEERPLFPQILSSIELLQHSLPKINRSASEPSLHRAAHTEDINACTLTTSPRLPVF
Outline: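 Coupled pyruvate kinase/LDH assay tracking NADH oxidation at 340 nm, with 0.43 nM C-Raf, 30.1 nM MEK and 1 mM ATP in pH 7.5 Tris buffer (15 mM MgCl2, 1% DMSO final). Read continuously for 6 h at 30 °C, rate taken from the 4–5 h window. IC50 from four-parameter fit of percent inhibition.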

A375 cells = experiment: A375 Cell Proliferation Assay (1); format: cell-based; conditions: Homo sapiens, A-375
Outline: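 Resazurin fluorescence (excitation 540 nm, emission 600 nm, after a further 5-6 h) gave IC50s from triplicate compound dilution series.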

Chain of A-Raf kinase (SEQ. ID No: 1) (P10398 other isoform, or with tags, fused parts or gaps Y301D (already in the parent)/Y302D (already in the parent)): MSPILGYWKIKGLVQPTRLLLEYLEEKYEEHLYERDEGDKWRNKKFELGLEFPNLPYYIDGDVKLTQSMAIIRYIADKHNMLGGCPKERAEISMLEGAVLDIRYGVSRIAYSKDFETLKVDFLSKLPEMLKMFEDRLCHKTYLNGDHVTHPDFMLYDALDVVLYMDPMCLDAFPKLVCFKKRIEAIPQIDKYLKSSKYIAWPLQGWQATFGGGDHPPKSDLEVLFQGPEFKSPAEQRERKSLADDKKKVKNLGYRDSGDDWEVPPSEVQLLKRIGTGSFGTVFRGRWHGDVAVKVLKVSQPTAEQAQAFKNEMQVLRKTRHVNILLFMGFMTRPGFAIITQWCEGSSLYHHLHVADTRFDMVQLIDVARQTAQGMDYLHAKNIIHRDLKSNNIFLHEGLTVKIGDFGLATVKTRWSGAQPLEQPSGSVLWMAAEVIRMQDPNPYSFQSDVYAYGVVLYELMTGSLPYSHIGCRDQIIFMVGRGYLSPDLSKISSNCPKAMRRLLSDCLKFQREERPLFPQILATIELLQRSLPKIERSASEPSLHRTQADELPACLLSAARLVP

SMILES	IC50 [1] [µM]	IC50 [2] [µM]	IC50 [3] [µM]	IC50 (A375 cells) [µM]
Cc1ccc(NC(=O)c2ccnc(C(C)(C)C#N)c2)cc1-c1cccc(-c2ccnc3[nH]ncc23)c1 [Example 134]	1 to 10	≤ 0.1	≤ 0.1	0.1 to 0.5
CNC(=O)c1cc(-c2cncc(-c3cc(NC(=O)c4cc(C(F)(F)F)ccn4)ccc3C)n2)ccn1 [Example 135]	1 to 10	≤ 0.1	≤ 0.1	0.5 to 1
CNC(=O)c1cc(-c2cncc(-c3cc(NC(=O)c4cccc(C(C)(C)C#N)c4)ccc3C)n2)ccn1 [Example 136]	1 to 10	≤ 0.1	≤ 0.1	≤ 0.1
CNC(=O)c1cc(-c2cncc(-c3cc(NC(=O)c4ccnc(C5(C#N)CC5)c4)ccc3C)n2)ccn1 [Example 138]	1 to 10	≤ 0.1	≤ 0.1	0.1 to 0.5
CNC(=O)c1cc(-c2cncc(-c3cc(NC(=O)c4ccnc(C5CC5)c4)ccc3C)n2)ccn1 [Example 139]	1 to 10	≤ 0.1	≤ 0.1	1 to 10
CC(=O)Nc1cc(-c2cncc(-c3cc(NC(=O)c4ccnc(C(C)(C)C#N)c4)ccc3C)n2)ccn1 [Example 140]	0.5 to 1	≤ 0.1	≤ 0.1	≤ 0.1
Cc1ccc(NC(=O)c2ccnc(C(C)(C)C#N)c2)cc1-c1cncc(-c2ccnc(N)c2)n1 [Example 141]	1 to 10	0.1 to 0.5	≤ 0.1	1 to 10
COCC(=O)Nc1cc(-c2cncc(-c3cc(NC(=O)c4ccnc(C(C)(C)C#N)c4)ccc3C)n2)ccn1 [Example 142]	1 to 10	≤ 0.1	≤ 0.1	≤ 0.1
COCCNc1cc(-c2cncc(-c3cc(NC(=O)c4ccnc(C(C)(C)C#N)c4)ccc3C)n2)ccn1 [Example 143]	1 to 10	0.1 to 0.5	≤ 0.1	1 to 10
CC(=O)Nc1cc(-c2cncc(-c3cc(NC(=O)c4ccnc(C5CC5)c4)ccc3C)n2)ccn1 [Example 145]	0.5 to 1	≤ 0.1	≤ 0.1	≤ 0.1
CC(=O)Nc1cc(-c2cncc(-c3cc(NC(=O)c4ccnc(C5(C#N)CC5)c4)ccc3C)n2)ccn1 [Example 146]	0.5 to 1	≤ 0.1	≤ 0.1	≤ 0.1
Cc1ccc(NC(=O)c2ccnc(C(C)(C)C#N)c2)cc1-c1cncc(-c2ccnc(C(=O)NC3CC3)c2)n1 [Example 148]	1 to 10	0.1 to 0.5	0.1 to 0.5	1 to 10
CC(=O)Nc1cc(-c2nccc(-c3cc(NC(=O)c4cccc(C(C)(C)C#N)c4)ccc3C)n2)ccn1 [Example 150]	0.1 to 0.5	≤ 0.1	≤ 0.1	≤ 0.1
CC(=O)Nc1cc(-c2nccc(-c3cc(NC(=O)c4ccnc(C5(C#N)CC5)c4)ccc3C)n2)ccn1 [Example 151]	0.1 to 0.5	≤ 0.1	≤ 0.1	≤ 0.1
CC(=O)Nc1cc(-c2nccc(-c3cc(NC(=O)c4ccnc(C5CC5)c4)ccc3C)n2)ccn1 [Example 152]	0.5 to 1	≤ 0.1	≤ 0.1	0.1 to 0.5
CC(=O)Nc1cc(-c2nccc(-c3cc(NC(=O)c4cc(C(F)(F)F)ccn4)ccc3C)n2)ccn1 [Example 153]	0.1 to 0.5	≤ 0.1	≤ 0.1	≤ 0.1
Cc1ccc(NC(=O)c2ccnc(C(C)(C)C#N)c2)cc1-c1cncc(-c2ccnc(NC(=O)CC#N)c2)n1 [Example 154]	0.1 to 0.5	≤ 0.1	≤ 0.1	≤ 0.1
COCCNc1cc(-c2cccc(-c3cc(NC(=O)c4ccnc(C(F)(F)F)c4)ccc3C)c2)ncn1 [Example 156]	1 to 10	0.1 to 0.5	≤ 0.1	1 to 10
CC(=O)Nc1cc(-c2nccc(-c3cc(NC(=O)c4ccnc(C(F)(F)F)c4)cnc3C)n2)ccn1 [Example 157]	1 to 10	≤ 0.1	≤ 0.1	1 to 10
CNC(=O)c1cc(-c2cc(-c3cc(NC(=O)c4ccnc(C(C)(C)C#N)c4)cnc3C)ccn2)ccn1 [Example 158]	1 to 10	0.1 to 0.5	0.1 to 0.5	≤ 0.1
CNc1cc(-c2cccc(-c3cc(NC(=O)c4ccnc(C(C)(C)C#N)c4)ccc3C)c2)ncn1 [Example 160]	1 to 10	≤ 0.1	≤ 0.1	0.1 to 0.5
Cc1ccc(NC(=O)c2ccnc(C(C)(C)C#N)c2)cc1-c1cncc(-c2ccnc(NC=O)c2)n1 [Example 161]	0.5 to 1	≤ 0.1	≤ 0.1	≤ 0.1
Cc1ccc(NC(=O)c2ccnc(C(C)(C)C#N)c2)cc1-c1ccnc(-c2ccnc(C(=O)NC3CC3)c2)c1 [Example 162]	1 to 10	0.1 to 0.5	0.1 to 0.5	0.1 to 0.5

Further lines, results first:

IC50 [1] [µM]	IC50 [2] [µM]	IC50 [3] [µM]	IC50 (A375 cells) [µM]	SMILES
1 to 10	0.1 to 0.5	0.1 to 0.5	≤ 0.1	CNC(=O)c1cc(-c2cc(-c3cc(NC(=O)c4ccnc(C(C)(C)C#N)c4)ccc3C)cc(C3CC3)n2)ccn1 [Example 163]
1 to 10	0.1 to 0.5	0.1 to 0.5	0.1 to 0.5	CNC(=O)c1cc(-c2nccc(-c3cc(NC(=O)c4ccnc(C(C)(C)C#N)c4)c(F)cc3C)n2)ccn1 [Example 166]
1 to 10	≤ 0.1	≤ 0.1	0.5 to 1	CC(=O)Nc1cc(-c2nccc(-c3cc(NC(=O)c4cnnc(C5CC5)c4)ccc3C)n2)ccn1 [Example 168]
0.1 to 0.5	≤ 0.1	≤ 0.1	≤ 0.1	Cc1ccc(NC(=O)c2ccnc(C(C)(C)C#N)c2)cc1-c1nccc(-c2ccnc(NC(=O)C3CC3)c2)n1 [Example 169]
1 to 10	≤ 0.1	≤ 0.1	≤ 0.1	CNC(=O)c1cc(-c2cccc(-c3cc(NC(=O)c4ccnc(C(C)(C)C#N)c4)ccc3C)c2)ncn1 [Example 171]
1 to 10	≤ 0.1	≤ 0.1	≤ 0.1	Cc1ncc(NC(=O)c2ccnc(C(C)(C)C#N)c2)cc1-c1cccc(-c2ccnc(NC(=O)C3CC3)c2)n1 [Example 172]
1 to 10	0.1 to 0.5	≤ 0.1	0.5 to 1	CNc1cc(-c2cncc(-c3cc(NC(=O)c4ccnc(C(C)(C)C#N)c4)ccc3C)n2)ccn1 [Example 173]
1 to 10	≤ 0.1	≤ 0.1	≤ 0.1	Cc1ccc(NC(=O)c2cccc(C(C)(C)C#N)c2)cc1-c1cccc(-c2cc(NC(=O)C3CC3)ncn2)c1 [Example 174]
1 to 10	≤ 0.1	≤ 0.1	0.1 to 0.5	CNC(=O)c1cc(-c2nccc(-c3cc(NC(=O)c4ccnc(C5(C#N)CC5)c4)ccc3C)n2)ccn1 [Example 175]
1 to 10	0.1 to 0.5	≤ 0.1	≤ 0.1	CNC(=O)c1cc(-c2cc(-c3cc(NC(=O)c4ccnc(C(C)(C)C#N)c4)c(F)cc3C)ccn2)ccn1 [Example 176]
1 to 10	0.1 to 0.5	≤ 0.1	0.1 to 0.5	CNC(=O)c1cc(-c2ccnc(-c3cc(NC(=O)c4ccnc(C(C)(C)C#N)c4)ccc3C)n2)ccn1 [Example 177]
1 to 10	≤ 0.1	≤ 0.1	0.1 to 0.5	CNC(=O)c1cc(-c2cc(-c3cc(NC(=O)c4ccnc(C5(C#N)CC5)c4)ccc3C)ncn2)ccn1 [Example 178]
0.5 to 1	≤ 0.1	≤ 0.1	≤ 0.1	Cc1cc(F)c(NC(=O)c2ccnc(C(C)(C)C#N)c2)cc1-c1ccnc(-c2ccnc(NC(=O)C3CC3)c2)n1 [Example 179]
0.1 to 0.5	≤ 0.1	≤ 0.1	≤ 0.1	Cc1ccc(NC(=O)c2ccnc(C3(C#N)CC3)c2)cc1-c1ccnc(-c2ccnc(NC(=O)C3CC3)c2)n1 [Example 180]
1 to 10	≤ 0.1	≤ 0.1	≤ 0.1	Cc1ncc(NC(=O)c2ccnc(C(C)(C)C#N)c2)cc1-c1cccc(-c2cc(NC(=O)C3CC3)ncn2)c1 [Example 181]
1 to 10	0.1 to 0.5	≤ 0.1	0.1 to 0.5	CCC(=O)Nc1cc(-c2cccc(-c3cc(NC(=O)c4ccnc(C(C)(C)C#N)c4)cnc3C)n2)ccn1 [Example 182]
0.1 to 0.5	≤ 0.1	≤ 0.1	≤ 0.1	Cc1ccc(NC(=O)c2ccnc(C3CC3)c2)cc1-c1cncc(-c2ccnc(NC(=O)C3CC3)c2)n1 [Example 184]
